Data taken from patent US10206937B2, “Boronic acid derivatives and therapeutic uses thereof” (Qpex Biopharma, Inc., priority 2014, dated 2019).

Test system: strains of Enterobacteriaceae producing various carbapenemases (class A, D and B; 104 strains)
Test: Antibiotics potentiation by Compound 27 (MIC; meropenem, doripenem, ertapenem, cefepime)
Type: cell-based
Conditions: + 27 = with Compound 27 at fixed 4 μg/ml

C[C@@H](O)[C@H]1C(=O)N2C(C(=O)O)=C(S[C@@H]3CN[C@H](C(=O)N(C)C)C3)[C@H](C)[C@H]12 [M]
MIC (strain KP1081 Klebsiella pneumoniae (NDM-1, TEM-1, SHV-11, CMY-6, CTX-M-15)): Z (MIC of greater than 10 μg/mL) | MIC (strain KP1082 Klebsiella pneumoniae (KPC-2, SHV-1)): Y (MIC of 1 μg/mL to 10 μg/mL) | MIC (strain KP1083 Klebsiella pneumoniae (KPC-3, SHV-1, TEM-1)): Y (MIC of 1 μg/mL to 10 μg/mL) | MIC (strain KP1084 Klebsiella pneumoniae (KPC-3, SHV-11, TEM-1)): Z (MIC of greater than 10 μg/mL) | MIC (strain KP1086 Klebsiella pneumoniae (OXA-48, CTX-M-15, TEM, SHV)): Z (MIC of greater than 10 μg/mL) | MIC (strain KP1087 Klebsiella pneumoniae (KPC-2, CTX-M-15, SHV-11, TEM-1)): Z (MIC of greater than 10 μg/mL) | MIC (strain KP1088 Klebsiella pneumoniae (KPC-3, SHV-11, TEM-1)): Y (MIC of 1 μg/mL to 10 μg/mL) | MIC (strain KP1089 Klebsiella pneumonias (OXA-181, CTX-M-15, TEM, SHV)): Y (MIC of 1 μg/mL to 10 μg/mL) | MIC (strain KP1095 Klebsiella pneumoniae (KPC-2 TEM-1 SHV-1)): Y (MIC of 1 μg/mL to 10 μg/mL) | MIC (strain KP1096 Klebsiella pneumoniae (KPC-2 TEM-181 SHV-11)): Y (MIC of 1 μg/mL to 10 μg/mL) | MIC (strain KP1097 Klebsiella pneumonias (IMP-1)): Z (MIC of greater than 10 μg/mL) | MIC (strain KP1098 Klebsiella pneumoniae (IMP-26)): Z (MIC of greater than 10 μg/mL) | MIC (strain KP1104 Klebsiella pneumoniae (KPC TEM)): Z (MIC of greater than 10 μg/mL) | MIC (strain KP1105 Klebsiella pneumoniae (KPC TEM SHV)): Z (MIC of greater than 10 μg/mL) | MIC (strain KP1159 Klebsiella pneumoniae (SHV-1(2b); CTX-M-15; IMP-4)): Z (MIC of greater than 10 μg/mL) | MIC (strain KP1160 Klebsiella pneumoniae (SHV-28(2be); CTX-M-15; IMP-26)): Z (MIC of greater than 10 μg/mL) | MIC (strain KP1161 Klebsiella pneumoniae (NDM-1)): Z (MIC of greater than 10 μg/mL) | MIC (strain KP1164 Klebsiella pneumoniae (SHV-12(2be); VIM-1)): Z (MIC of greater than 10 μg/mL) | MIC (strain KP1165 Klebsiella pneumoniae (SHV-11(2b); CTX-M-15; VIM-27)): Z (MIC of greater than 10 μg/mL) | MIC (strain KP1166 Klebsiella pneumoniae (SHV-5(2be); VIM-26)): Z (MIC of greater than 10 μg/mL) | MIC (strain KP1167 Klebsiella pneumoniae (SHV-12(2be); VIM-1)): X (MIC of less than 1 μg/mL) | MIC (strain KP1169 Klebsiella pneumoniae (SHV-11(2b); VIM-1)): Z (MIC of greater than 10 μg/mL) | MIC (strain KP1170 Klebsiella pneumoniae (SHV-11(2b); CTX-M-15; NDM-1)): Z (MIC of greater than 10 μg/mL) | MIC (strain KP1172 Klebsiella pneumoniae (SHV-31(2be); DHA-1; VIM-1)): Y (MIC of 1 μg/mL to 10 μg/mL) | MIC (strain KP1173 Klebsiella pneumoniae (TEM-33(2br); CTX-M-15; IMP-1)): Y (MIC of 1 μg/mL to 10 μg/mL) | MIC (strain KP1174 Klebsiella pneumoniae (CTX-M-14; IMP-1)): Y (MIC of 1 μg/mL to 10 μg/mL) | MIC (strain KP1175 Klebsiella pneumoniae (SHV-OSBL(2b); VIM-1)): Z (MIC of greater than 10 μg/mL) | MIC (strain KP1177 Klebsiella pneumoniae (SHV-OSBL(2b), TEM-OSBL(2b); CTX-M-15; NDM-1)): Z (MIC of greater than 10 μg/mL) | MIC (strain KP1178 Klebsiella pneumoniae (SHV-OSBL(2b;) TEM-OSBL(2b); CTX-M-15; NDM-1)): Z (MIC of greater than 10 μg/mL) | MIC (strain KP1179 Klebsiella pneumoniae (SHV-12(2be), TEM-OSBL(2b); CTX-M-15; NDM-7)): Z (MIC of greater than 10 μg/mL) | MIC (strain KP1180 Klebsiella pneumoniae (SHV-OSBL(2b), TEM-OSBL(2b); CTX-M-15; DHA-1; IMP-26)): Y (MIC of 1 μg/mL to 10 μg/mL) | MIC (strain KP1181 Klebsiella pneumoniae (SHV-OSBL(2b); CTX-M-15; IMP-26)): Y (MIC of 1 μg/mL to 10 μg/mL) | MIC (strain KP1183 Klebsiella pneumoniae (SHV-OSBL(2b), TEM-OSBL(2b); CTX-M-15; NDM-1)): Z (MIC of greater than 10 μg/mL) | MIC (strain KP1184 Klebsiella pneumoniae (SHV-OSBL(2b); IMP-1)): Y (MIC of 1 μg/mL to 10 μg/mL) | MIC (strain KP1185 Klebsiella pneumoniae (SHV-OSBL(2b), TEM-OSBL(2b); IMP-4)): Z (MIC of greater than 10 μg/mL) | MIC (strain KP1186 Klebsiella pneumoniae (CTX-M-15; NDM-1)): Z (MIC of greater than 10 μg/mL) | MIC (strain KP1187 Klebsiella pneumoniae (SHV-55(2be), TEM-OSBL(2b); CTX-M-15; NDM-1)): Z (MIC of greater than 10 μg/mL) | MIC (strain KP1188 Klebsiella pneumoniae (SHV-OSBL(2b); CTX-M-15; NDM-1)): Z (MIC of greater than 10 μg/mL) | MIC (strain KP1189 Klebsiella pneumoniae (TEM-OSBL(2b); CTX-M-15; CTX-M-27; NDM-1)): Z (MIC of greater than 10 μg/mL) | MIC (strain KPM1123 Klebsiella pneumoniae (KPC-2 TEM SHV)): Z (MIC of greater than 10 μg/mL) | MIC (strain KPM1202 Klebsiella pneumoniae (KPC SHV TEM)): Y (MIC of 1 μg/mL to 10 μg/mL) | MIC (strain KPM1203 Klebsiella pneumoniae (KPC SHV TEM)): Y (MIC of 1 μg/mL to 10 μg/mL) | MIC (strain KPM1344 Klebsiella pneumoniae (VIM-1)): Y (MIC of 1 μg/mL to 10 μg/mL) | MIC (strain KPM1345 Klebsiella pneumoniae (VIM-1 SHV)): Z (MIC of greater than 10 μg/mL) | MIC (strain KPM1347 Klebsiella pneumoniae (NDM-1 SHV CTX-M-15)): Z (MIC of greater than 10 μg/mL) | MIC (strain KX1017 Klebsiella oxytoca (KPC-2, OXA-2, SHV-30)): Y (MIC of 1 μg/mL to 10 μg/mL) | MIC (strain KX1018 Klebsiella oxytoca (KPC-2, SHV-40, OXY-1)): Y (MIC of 1 μg/mL to 10 μg/mL) | MIC (strain KX1019 Klebsiella oxytoca (KPC-2, OXA-2)): Y (MIC of 1 μg/mL to 10 μg/mL) | MIC (strain PM1024 Proteus mirabilis (TEM-1(2b); CMY-16; VIM-1)): Y (MIC of 1 μg/mL to 10 μg/mL) | MIC (strain PM1026 Proteus mirabilis (DHA-1; IMP-26)): Z (MIC of greater than 10 μg/mL) | MIC (strain PM1027 Proteus mirabilis (VIM-5)): Z (MIC of greater than 10 μg/mL) | MIC (strain SM1023 Serratia marcescens (VIM-4)): Z (MIC of greater than 10 μg/mL)
